# Results from paper PMC12406199, “NanoDSF Screening for Anti-tubulin Agents Uncovers New Structure–Activity Insights” (Journal of Medicinal Chemistry, 2025).
# Counter-ions that a name gives are not always drawn.
# Test system: U87MG
# Assay: cells
# Set-up: MTT viability assay on U87MG glioblastoma cells
# Conditions: Homo sapiens, U-87 MG, 72 h
# Procedure: Glioblastoma cell culture routines, viability, and proliferation assays were performed as previously described. U87MG cells were maintained in complete MEM media supplemented with 10% FBS and 2 mM L-glutamine (Invitrogen, Paris, France). For cytotoxicity assays, cells were counted and plated in 96-well flat-bottom plates (50,000 cells/mL, 5000 cells per well). After 24 h, the cells were treated with increasing concentrations of the MTAs (0, 1, 5, 10, and 20–40 μM) in a vehicle solution, containing 0.05% DMSO. All concentrations were done in triplicates. The surviving cells were quantified after 72 h by the tetrazolium bromide MTT-assay, according to the manufacturer’s instructions. After cell lysis, the optical density was measured at 600 nm using a Multiskan MS Thermo plate reader (LabSystems, Waltham, MA, USA).
row,Structure (SMILES),IC50
1,"O[C@@H](c1cc(C(F)(F)F)nc2c(C(F)(F)F)cccc12)[C@H]1CCCCN1 (racemic) [MFQ, Mefloquine]",11.6 ± 1.2 µM
2,"CCCSc1ccc2nc(NC(=O)OC)[nH]c2c1 [ABZ, Albendazole]",0.3 µM
3,"C[C@@H](O[C@H]1OCCN(Cc2n[nH]c(=O)[nH]2)[C@H]1c1ccc(F)cc1)c1cc(C(F)(F)F)cc(C(F)(F)F)c1 [APT, Aprepitant]",41.8 ± 31.8 µM
4,"C[C@H]1[C@H](OC(=O)CCC(=O)O)O[C@@H]2O[C@@]3(C)CC[C@H]4[C@H](C)CC[C@@H]1[C@@]24OO3 [ASN, Artesunate]",24 ± 4.1 µM
5,"CCc1oc2ccccc2c1C(=O)c1ccc(O)cc1 [BZ, Benzarone]",7.4 ± 0.7 µM
6,"CCc1oc2ccccc2c1C(=O)c1cc(Br)c(O)c(Br)c1 [BZB, Benzbromarone]",62.1 ± 2.8 µM
7,"Nc1cc(C(Cl)=C(Cl)Cl)c(S(N)(=O)=O)cc1S(N)(=O)=O [CLS, Clorsulon]",66.8 ± 13.3 µM
8,"CN(C)CC/C=C1/c2ccccc2Sc2ccc(Cl)cc21 [CPX, Chlorprothixene]",27.6 ± 2.2 µM
9,"CN(C)CCCN1c2ccccc2Sc2ccc(Cl)cc21 [CPZ, Chlorpromazine]",4.5 ± 0.5 µM
10,"Oc1ccc(Cl)cc1Cc1cc(Cl)ccc1O [DCP, Dichlorophen]",7.7 ± 1.2 µM
11,"N#CC(c1ccc(Cl)cc1)c1c(Cl)cc(-n2ncc(=O)[nH]c2=O)cc1Cl (stereo not drawn) [DCZ, Diclazuril]",48.9 ± 6 µM
12,"C/C=C(/C(=C/C)c1ccc(O)cc1)c1ccc(O)cc1 [DE, Dienestrol]",23.6 ± 1 µM
13,"CCN(CC)C(=S)SSC(=S)N(CC)CC [DFM, Disulfiram]",12 ± 1.6 µM
14,"O=c1c2ccccc2[se]n1-c1ccccc1 [EBS, Ebselen]",50.9 ± 32.7 µM
15,"C[C@]12CC[C@@H]3c4ccc(O)cc4CC[C@H]3[C@@H]1CC[C@@H]2O [ED, 17β-estradiol]",30.7 ± 1.9 µM
16,"C#C[C@]1(O)CC[C@H]2[C@@H]3CCc4cc(O)ccc4[C@H]3CC[C@@]21C [EES, Ethinylestradiol]",15.7 ± 0.8 µM
17,"O=C1Nc2ccc(Cl)cc2[C@@](C#CC2CC2)(C(F)(F)F)O1 [EFV, Efavirenz]",26.7 ± 2.6 µM
18,"COC(=O)Nc1nc2ccc(Sc3ccccc3)cc2[nH]1 [FBZ, Fenbendazole]",0.2 µM
19,"CCOC(=O)C1=C(C)NC(C)=C(C(=O)OC)C1c1cccc(Cl)c1Cl (stereo not drawn) [FDP, Felodipine]",13.7 ± 4 µM
20,"COC(=O)Nc1nc2cc(C(=O)c3ccc(F)cc3)ccc2[nH]1 [FLU, Flubendazol]",0.6 µM
21,"OCCN1CCN(CC/C=C2/c3ccccc3Sc3ccc(C(F)(F)F)cc32)CC1 [FPX, Flupentixol]",9.8 ± 1.8 µM
22,"COC1=CC(=O)C[C@@H](C)[C@]12Oc1c(Cl)c(OC)cc(OC)c1C2=O [GSF, Griseofulvin]",24.4 ± 3.7 µM
23,"Oc1c(Cl)cc(Cl)c(Cl)c1Cc1c(O)c(Cl)cc(Cl)c1Cl [HCP, Hexachlorophene]",5.1 ± 0.7 µM
24,CC[C@H](c1ccc(O)cc1)[C@@H](CC)c1ccc(O)cc1 [Hexestrol],20.2 ± 0.5 µM
25,"Clc1ccc(C(Cn2ccnc2)OCc2c(Cl)cccc2Cl)c(Cl)c1 (stereo not drawn) [ICZ, Isoconazole]",33.1 ± 1.8 µM
26,"C[C@]12C=CC(=O)C=C1CC[C@@H]1[C@@H]2CC[C@@]2(C)[C@H]1CC[C@]2(C)O [MAS, Methandrostenolone]",58.7 ± 5.1 µM

row,Structure (SMILES),IC50
1,"CN(C)c1ccc2nc3ccc(=[N+](C)C)cc-3sc2c1 [MB, Methylene Blue]",64.2 ± 9.9 µM
2,"Clc1ccc(C(c2ccccc2Cl)C(Cl)Cl)cc1 (stereo not drawn) [MTT, Mitotane]",23.7 ± 2.7 µM
3,"COC(=O)Nc1nc2ccc(C(=O)c3cccs3)cc2[nH]1 [NCZ, Nocodazole]",< 0.1 µM
4,"N=C(N)Nc1ccc(C(=O)Oc2ccc3cc(C(=N)N)ccc3c2)cc1 [NFM, Nafamostat]",45.2 ± 6.1 µM
5,"COC(=O)C1=C(C)NC(C)=C(C(=O)OCC(C)C)C1c1ccccc1[N+](=O)[O-] (stereo not drawn) [NSD, Nisoldipine]",25.3 ± 1.6 µM
6,"CCOC(=O)C1=C(C)NC(C)=C(C(=O)OC)C1c1cccc([N+](=O)[O-])c1 (stereo not drawn) [NTD, Nitrendipine]",36.8 ± 3.3 µM
7,"CNCCC=C1c2ccccc2CCc2ccccc21 [NTP, Nortriptyline]",20.5 ± 1.5 µM
8,"CCCOc1ccc2[nH]c(NC(=O)OC)nc2c1 [OBZ, Oxibendazol]",1.8 ± 0.3 µM
9,"COC(=O)Nc1nc2cc([S+]([O-])c3ccccc3)ccc2[nH]1 (stereo not drawn) [OFZ, Oxfendazole]",17 ± 1 µM
10,"COc1ccc(C(=O)c2ccccc2)c(O)c1 [OXY, Oxybenzone]",14.4 ± 7 µM
11,"CC(C)c1cccc(C(C)C)c1O [PPF, Propofol]",26.6 ± 2.5 µM
12,"OCCN1CCN(CCCN2c3ccccc3Sc3ccc(Cl)cc32)CC1 [PPZ, Perphenazine]",9.8 ± 0.4 µM
13,"CNCCCC1c2ccccc2C=Cc2ccccc21 [PTP, Protriptyline hydrochloride]",17.7 ± 1.5 µM
14,"c1ccc2c(c1)Nc1ccccc1S2 [PTZ, Phenothiazine]",60.2 ± 9.2 µM
15,"O=C1NCCN1CCN1CCC(c2cn(-c3ccc(F)cc3)c3ccc(Cl)cc23)CC1 [STD, Sertindole]",6.7 ± 0.2 µM
16,"Clc1ccc(C(Cn2ccnc2)OCc2csc3c(Cl)cccc23)c(Cl)c1 (stereo not drawn) [STZ, Sertaconazole nitrate]",10.7 ± 1.3 µM
17,"Cc1cc2nc3ccc(N(C)C)cc3[s+]c2cc1N [TBO, Tolonium (Toluidine Blue O)]",6.3 ± 0.3 µM
18,"Oc1cc(Cl)ccc1Oc1ccc(Cl)cc1Cl [TCL, Triclosan]",11.6 ± 0.5 µM
19,"CSc1nc2cc(Cl)c(Oc3cccc(Cl)c3Cl)cc2[nH]1 [TCZ, Triclabendazole]",15.1 ± 0.9 µM
20,"CCSc1ccc2c(c1)N(CCCN1CCN(C)CC1)c1ccccc1S2 [TEP, Thiethylperazine]",8.4 ± 0.2 µM
21,"CN1CCN(CCCN2c3ccccc3Sc3ccc(C(F)(F)F)cc32)CC1 [TFP, Trifluoperazine]",17.3 ± 3.2 µM
22,"CN(C)CCCN1c2ccccc2Sc2ccc(C(F)(F)F)cc21 [TFZ, Triflupromazine]",6.5 ± 0.6 µM
23,"Cc1c(C)c2c(c(C)c1O)CCC(C)(COc1ccc(CC3SC(=O)NC3=O)cc1)O2 (stereo not drawn) [TGZ, Troglitazone]",39.5 ± 1 µM
24,"CN(C)CCOc1ccc(/C(=C(/CCCl)c2ccccc2)c2ccccc2)cc1 [TMF, Toremifene]",13.3 ± 1.9 µM
25,"Clc1ccc(C(Cn2ccnc2)OCc2ccsc2Cl)c(Cl)c1 (stereo not drawn) [TOZ, Tioconazole]",18.3 ± 1.4 µM
26,"CNCCC=C1c2ccccc2C=Cc2ccccc21 [nCBP, Norcyclobenzaprine]",15.2 ± 0.8 µM

# Target: tubulin (Ovis aries, UniProt D0VWY9+D0VWZ0)
# Sequence (D0VWY9 entry or part of it): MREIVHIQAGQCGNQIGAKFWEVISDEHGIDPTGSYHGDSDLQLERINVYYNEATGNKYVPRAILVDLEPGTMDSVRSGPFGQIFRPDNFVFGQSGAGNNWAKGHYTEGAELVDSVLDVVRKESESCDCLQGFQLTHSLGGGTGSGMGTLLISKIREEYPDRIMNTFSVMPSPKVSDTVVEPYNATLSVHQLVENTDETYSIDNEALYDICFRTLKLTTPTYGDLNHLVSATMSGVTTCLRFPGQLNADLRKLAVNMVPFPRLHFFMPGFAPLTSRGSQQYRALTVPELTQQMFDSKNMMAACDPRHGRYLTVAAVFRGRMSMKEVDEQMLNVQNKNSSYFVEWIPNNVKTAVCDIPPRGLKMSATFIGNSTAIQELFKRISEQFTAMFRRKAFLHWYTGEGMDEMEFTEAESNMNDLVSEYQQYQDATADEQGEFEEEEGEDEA
# Sequence (D0VWZ0 entry or part of it): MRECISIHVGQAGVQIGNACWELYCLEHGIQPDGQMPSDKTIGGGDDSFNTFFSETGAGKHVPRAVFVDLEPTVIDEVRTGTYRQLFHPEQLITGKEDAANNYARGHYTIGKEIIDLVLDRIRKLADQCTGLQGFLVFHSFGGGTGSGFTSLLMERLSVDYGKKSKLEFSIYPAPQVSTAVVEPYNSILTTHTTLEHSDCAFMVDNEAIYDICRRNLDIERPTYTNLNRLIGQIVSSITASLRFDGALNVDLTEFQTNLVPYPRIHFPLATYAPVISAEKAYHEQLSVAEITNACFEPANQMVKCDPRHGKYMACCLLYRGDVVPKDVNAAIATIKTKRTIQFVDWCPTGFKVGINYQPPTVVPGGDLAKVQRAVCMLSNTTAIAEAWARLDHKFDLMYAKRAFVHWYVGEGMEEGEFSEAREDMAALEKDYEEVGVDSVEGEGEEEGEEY
# Assay: nanoDSF screen, shift of polymerization temperature at about […]
# Assay type: biochemical
# Conditions: not given
row,Structure (SMILES),ΔTm at 50 µM
1,"CCCSc1ccc2nc(NC(=O)OC)[nH]c2c1 [ABZ, Albendazole]",6.4 °C
2,"COC(=O)Nc1nc2ccc(C(=O)c3cccs3)cc2[nH]1 [NCZ, Nocodazole]",6 °C
